{"source": "patent US20230158071A1", "about": "“TUMOR COMBINED IMMUNOTHERAPY” (CRAGE medical Co., Limited, priority 2018, published 2023)", "format_in_all_cases": "cell-based, mouse", "key": {"4T1-EGFRvIII cells": {"system": "4T1-EGFRvIII cells", "experiment": "LDH cytotoxicity assay, CAR-T killing of olaparib-treated 4T1-EGFRvIII cells", "protocol": "The experimental groups for incubating with cells that are positive for the antigen target comprises the following 4 groups: UTD group, 806-mCD28z-CAR-T group (or denoted as 806-28Z), olaparib pretreatment group, and olaparib combined treatment group;\nthe olaparib pretreatment group comprises: UTD+1 μM olaparib pretreatment group (or denoted as UTD+Olaparib 1 μM pretreatment), UTD+5 μM olaparib pretreatment group (or denoted as UTD+Olaparib 5 μM pretreatment), 806-mCD28z-CAR-T+1 μM olaparib pretreatment group (or denoted as 806-28Z+Olaparib 1 μM pretreatment). 806-mCD28z-CAR-T+5 μM olaparib pretreatment group (or denoted as 806-28Z+Olaparib 5 μM pretreatment); […]\nOlaparib pretreatment group: different concentrations of olaparib (1 μM, 5 μM) are added to the medium for culturing E0771-EGFRVIII or 4T1-EGFRvIII tumor cells respectively, culturing at 37° C. for 24 h, and then the cells are treated with trypsin and resuspended in fresh medium. The untreated mouse T cells and 806-mCD28z-CAR T cells in Example 1 are respectively taken to incubate with E0771-EGFRvIII or 4T1-EGFRVIII cells pretreated with different concentrations of olaparib at a ratio of 1:3, 1:1, and 3:1; 16 hours later, the secretion of LDH in the supernatant is detected by Cytox 96 Non-Radioactive Cytotoxicity Assay, then calculating the killing toxicity of 806-mCD28z CAR T cells to tumor cells pretreated with different concentrations of olaparib. […] Cytox 96 Non-Radioactive Cytotoxicity Assay (Promaga, REF: G1782); at the same time, the secretions of cytokines Granzyme B, IFN-γ, and IL-2 in the supernatant are detected by ELISA kit (Lianke Biotech Co. Ltd. CAT: 18^.22), for specific experimental procedures, referring to instructions of MouseGranzyme B, IFN-γ, IL-2 ELISA kit from Lianke Biotech Co, Ltd. […]"}, "[1]": {"system": "exhaustion-related proteins PD1, LAG3 and TIM3 on the surface of CAR-T cells", "experiment": "Flow cytometry of exhaustion-related proteins on CAR-T cells in co-culture", "protocol": "The experimental groups are as follows: 806-mCD28z-CAR-T group (or denoted as 806-28Z), olaparib pretreatment group, and olaparib combined treatment group;\nThe olaparib pretreatment group comprises: 806-mCD28z-CAR-T+1 μM olaparib pretreatment group (or denoted as 806-28Z+Olaparib 1 μM pretreatment), 806-mCD28z-CAR-T+5 μM olaparib pretreatment group (or denoted as 806-28Z+Olaparib 5 μM pretreatment);\nOlaparib combined treatment group comprises: 806-mCD28z-CAR-T+1 μM olaparib combined treatment group (or denoted as 806-28Z+Olaparib 1 μM), 806-mCD28z-CAR-T+5 μM olaparib combined treatment group (or denoted as 806-28Z+Olaparib 5 μM).\n(§1) Olaparib pretreatment group: different concentrations of olaparib (1 μM, 5 μM) are respectively added to a medium for culturing E0771-EGFRvIII or 4T1-EGFRvIII tumor cells, after culturing at 37° C. for 24 hours, the cells are treated with trypsin and resuspended in fresh medium. 806-mCD28z-CAR T cells in Example 1 are taken to co-incubate with E0771-EGFRVIII or 4T1-EGFRvIII cells pretreated with different concentrations of olaparib at a ratio of 1:1; 16 hours later, the proliferation of CAR-T cells and the expression levels of the T cell exhaustion-related proteins PD1, LAG3 and TIM3 on the surface of CAR-T cells are detected by flow cytometry.\nas §1, with “combined treatment” for “pretreatment”, “E0771-EGFRvIII” for “E0771-EGFRVIII”, “1:1; after corresponding concentrations of olaparib (1 μM, 5 μM) are respectively added to the medium for” for “1:1;”, “hours,” for “hours later,”, “LAG-3” for “LAG3”"}, "[2]": {"system": "cytokines Granzyme B, IFN-γ, and IL-2", "experiment": "ELISA of cytokines in supernatant of co-cultured E0771-EGFRvIII cells and CAR-T cells", "conditions": "E0771-EGFRvIII co-culture", "protocol": "Olaparib pretreatment group: different concentrations of olaparib (1 μM, 5 μM) are added to the medium for culturing E0771-EGFRVIII or 4T1-EGFRvIII tumor cells respectively, culturing at 37° C. for 24 h, and then the cells are treated with trypsin and resuspended in fresh medium. The untreated mouse T cells and 806-mCD28z-CAR T cells in Example 1 are respectively taken to incubate with E0771-EGFRvIII or 4T1-EGFRVIII cells pretreated with different concentrations of olaparib at a ratio of 1:3, 1:1, and 3:1; 16 hours later, the secretion of LDH in the supernatant is detected by Cytox 96 Non-Radioactive Cytotoxicity Assay, then calculating the killing toxicity of 806-mCD28z CAR T cells to tumor cells pretreated with different concentrations of olaparib. For specific detection steps and calculation methods, see the instructions of Promaga. Cytox 96 Non-Radioactive Cytotoxicity Assay (Promaga, REF: G1782); at the same time, the secretions of cytokines Granzyme B, IFN-γ, and IL-2 in the supernatant are detected by ELISA kit (Lianke Biotech Co. Ltd. CAT: 18^.22), for specific experimental procedures, referring to instructions of MouseGranzyme B, IFN-γ, IL-2 ELISA kit from Lianke Biotech Co, Ltd.\nOlaparib combined treatment group: different concentrations of olaparib (1 μM, 5 μM) are added to the medium for culturing E0771-EGFRVIII or 4T1-EGFRvIII tumor cells respectively, culturing at 37° C. for 24 h, and then the cells are treated with trypsin and resuspended in fresh medium. The untreated mouse T cells and 806-mCD28z-CAR T cells in Example 1 are respectively taken to incubate with E0771-EGFRvIII or 4T1-EGFRvIII cells treated with different concentrations of olaparib at a ratio of 1:3, 1:1, and 3:1; after corresponding concentrations of olaparib (1 μM, 5 μM) are added to treat the cells continuously for 16 hours, the secretion of LDH in the supernatant is detected by Cytox 96 Non-Radioactive Cytotoxicity Assay, then calculating the killing toxicity of 806-mCD28z CAR T cells to tumor cells pretreated with different concentrations of olaparib. […]"}, "[3]": {"conditions": "olaparib combined treatment group"}, "[4]": {"conditions": "olaparib pretreatment and combined treatment groups vs CAR-T single treatment group"}}, "data": [{"smiles": "O=C(c1cc(Cc2n[nH]c(=O)c3ccccc23)ccc1F)N1CCN(C(=O)C2CC2)CC1", "note": "[olaparib]", "values": [{"measurement": "lethal effect on 4T1-EGFRvIII cells compared with the CAR-T single treatment group", "setting": "4T1-EGFRvIII cells; 5 μM olaparib combined treatment group", "result": "higher synergistic lethal effect"}, {"measurement": "promotion of the killing effect of CAR-T cells on 4T1-EGFRvIII cells", "setting": "4T1-EGFRvIII cells; 5 μM olaparib pretreatment group, better than 5 μM combined treatment group", "result": "most significant"}, {"measurement": "killing effect of CAR-T cells on 4T1-EGFRvIII cells", "setting": "4T1-EGFRvIII cells; olaparib 1 μM or 5 μM, pretreatment or combined treatment, vs CAR-T alone, ratio 1:3, 1:1, 3:1, 16 hours, LDH", "result": "significantly improved"}, {"measurement": "expression level of LAG3 on the surface of CAR-T cells", "setting": "[1]; [3]", "result": "do not change significantly"}, {"measurement": "expression level of PD1 on the surface of CAR-T cells", "setting": "[1]; [3]", "result": "do not change significantly"}, {"measurement": "expression level of TIM3 on the surface of CAR-T cells", "setting": "[1]; [3]", "result": "do not change significantly"}, {"measurement": "expression level of LAG3 on the surface of CAR-T cells", "setting": "[1]; olaparib pretreatment group", "result": "do not change significantly"}, {"measurement": "expression level of PD1 on the surface of CAR-T cells", "setting": "[1]; olaparib pretreatment group", "result": "do not change significantly"}, {"measurement": "expression level of TIM3 on the surface of CAR-T cells", "setting": "[1]; olaparib pretreatment group", "result": "do not change significantly"}, {"measurement": "level of Granzyme B in the supernatant", "setting": "[2]; [4]", "result": "do not increase significantly"}, {"measurement": "level of IL-2 in the supernatant", "setting": "[2]; [4]", "result": "do not increase significantly"}, {"measurement": "level of IFN-γ in the supernatant", "setting": "[2]; olaparib pretreatment group and olaparib combined treatment group vs CAR-T single treatment group", "result": "significantly increased"}]}]}
